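48-hour exposure; five concentrations; linearly interpolated endpoints. The concentration for full growth arrest is given as TGI.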
What was measured:
Experiment in all cases: NCI tumour cell line growth inhibition, 48 h
786-0 renal = test system: 786-0 renal
A498 renal = test system: A498 renal
A549 NSCLC = test system: A549 NSCLC
ACHN renal = test system: ACHN renal
CAKI-1 renal = test system: CAKI-1 renal
CCRF-CEM leukemia = test system: CCRF-CEM leukemia
COLO 205 colon = test system: COLO 205 colon
DLD-1 colon = test system: DLD-1 colon
DMS 114 small cell lung = test system: DMS 114 small cell lung
DMS 273 small cell lung = test system: DMS 273 small cell lung
EKVX NSCLC = test system: EKVX NSCLC
HCT-116 colon = test system: HCT-116 colon
HCT-15 colon = test system: HCT-15 colon
HL-60(TB) leukemia = test system: HL-60(TB) leukemia
HOP-18 NSCLC = test system: HOP-18 NSCLC
HOP-62 NSCLC = test system: HOP-62 NSCLC
HOP-92 NSCLC = test system: HOP-92 NSCLC
HT29 colon = test system: HT29 colon
IGROV1 ovarian = test system: IGROV1 ovarian
K-562 leukemia = test system: K-562 leukemia
KM12 colon = test system: KM12 colon
KM20L2 colon = test system: KM20L2 colon
LOX IMVI melanoma = test system: LOX IMVI melanoma
LXFL 529 NSCLC = test system: LXFL 529 NSCLC
M14 melanoma = test system: M14 melanoma
M19-MEL melanoma = test system: M19-MEL melanoma
MALME-3M melanoma = test system: MALME-3M melanoma
MOLT-4 leukemia = test system: MOLT-4 leukemia
NCI-H226 lung = test system: NCI-H226 lung
NCI-H460 lung = test system: NCI-H460 lung
NCI-H522 lung = test system: NCI-H522 lung
OVCAR-3 ovarian = test system: OVCAR-3 ovarian
OVCAR-4 ovarian = test system: OVCAR-4 ovarian
OVCAR-5 ovarian = test system: OVCAR-5 ovarian
OVCAR-8 ovarian = test system: OVCAR-8 ovarian
RPMI-8226 leukemia = test system: RPMI-8226 leukemia
RXF 393 renal = test system: RXF 393 renal
RXF-631 renal = test system: RXF-631 renal
SF-268 CNS = test system: SF-268 CNS
SF-295 CNS = test system: SF-295 CNS
SK-MEL-2 melanoma = test system: SK-MEL-2 melanoma
SK-MEL-28 melanoma = test system: SK-MEL-28 melanoma
SK-MEL-5 melanoma = test system: SK-MEL-5 melanoma
SK-OV-3 ovarian = test system: SK-OV-3 ovarian
SN12C renal = test system: SN12C renal
SNB-19 CNS = test system: SNB-19 CNS
SNB-75 CNS = test system: SNB-75 CNS
SNB-78 CNS = test system: SNB-78 CNS
SR leukemia = test system: SR leukemia
SW-620 colon = test system: SW-620 colon
TK-10 renal = test system: TK-10 renal
U251 CNS = test system: U251 CNS
UACC-257 melanoma = test system: UACC-257 melanoma
UACC-62 melanoma = test system: UACC-62 melanoma
UO-31 renal = test system: UO-31 renal
XF 498 CNS = test system: XF 498 CNS
NCI-H23 lung = test system: NCI-H23 lung
SF-539 CNS = test system: SF-539 CNS

Measured: TGI

NCc1cc(O)c(O)c(O)c1
not listed: NCI-H23 lung | SF-539 CNS
> 100 µM: all other assays above

COc1ccc2nc(NC(=O)C(=O)C(C#N)c3ccc(Cl)c(Cl)c3)sc2c1 (stereo unspecified)
not listed: HOP-18 NSCLC | MOLT-4 leukemia | SR leukemia
> 100 µM: all other assays above
